From US10793514B2, “Glutamine transport inhibitors and methods for treating cancer” (Vanderbilt University, priority 2016, dated 2020)

Key:
ASCT1 (SLC1A4) = ASCT1 (SLC1A4) (Mus musculus (Mouse), UniProt O35874); assay: Drug Affinity Responsive Target Stability (DARTS) assay, ASCT1; assay type: binding; conditions: thermolysin
Experimental: DARTS was carried out as previously described^15 using T-REx-293 cells with tetracycline-inducible expression of ASCT2 or lysate from 115 mg of homogenized mouse brain for ASCT1. […] Lysates were then incubated at room temperature with the protease Thermolysin (1:100 and 1:200 total enzyme to total substrate) for 30 min. ASCT2 was measured by immunoblotting (ASCT2 antibody: Millipore ABN73; ASCT1 antibody: Cell Signaling 8442).

[1] = system: HT29 (BRAF V600E) cell-line xenografts; assay: HT29 xenograft chronic exposure study; assay type: in vivo, mouse; conditions: 75 mg/kg per day, 21 days
Experimental: Tissues were sectioned (5 μm thickness) and stained for pS6 (Cell Signaling, #4858) and caspase 3 (Cell Signaling #9661). Tissue slides were imaged at 20× magnification.
For in vivo studies, cell-line xenograft tumors were propagated in 6-week old, female athymic nude mice from immortalized cell lines. For HCC-1806 (10×10^6 cells), HCT-116 (5×10^6), and HT29 (10×10^6) cells were injected. Palpable tumors were typically visible within 2-3 weeks. For imaging studies (HCC-1806), tumors were propagated to approximately 500 mm^3. For treatment studies (HCT-116, HT29) tumors were propagated to approximately 200 mm^3 prior to therapy and were randomly assigned into treated and untreated cohorts. For generating the PDX, primary tumor tissue was obtained form a patient at Vanderbilt University Medical Center under an IRB approved protocol. The tumor tissue was genotyped within the VANTAGE core facility. Xenograft was generated as previously described 41. Briefly, tumor tissues were sectioned into approximately 125 cubic millimeter pieces then implanted subcutaneously without further manipulation. […] Tumor volumes were measured manually using calipers every third day and quantified using the formula V=W·L·(H/2).

Chain of ASCT1 (SLC1A4) (O35874 whole entry): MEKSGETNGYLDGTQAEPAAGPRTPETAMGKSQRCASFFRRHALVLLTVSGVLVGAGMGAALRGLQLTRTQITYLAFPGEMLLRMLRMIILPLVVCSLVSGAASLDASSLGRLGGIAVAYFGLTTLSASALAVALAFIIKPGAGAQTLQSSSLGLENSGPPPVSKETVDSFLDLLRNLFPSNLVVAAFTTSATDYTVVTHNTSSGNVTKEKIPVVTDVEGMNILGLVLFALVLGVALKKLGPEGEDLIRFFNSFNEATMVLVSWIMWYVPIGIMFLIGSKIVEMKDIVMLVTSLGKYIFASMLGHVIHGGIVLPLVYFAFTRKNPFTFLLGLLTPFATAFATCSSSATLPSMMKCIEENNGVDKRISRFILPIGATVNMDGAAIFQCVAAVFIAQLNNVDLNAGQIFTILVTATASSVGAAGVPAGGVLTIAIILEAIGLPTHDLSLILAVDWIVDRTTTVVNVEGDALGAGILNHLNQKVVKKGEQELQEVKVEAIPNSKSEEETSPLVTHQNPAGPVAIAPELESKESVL

Cc1cccc(COc2ccccc2CN(CCC(N)C(=O)O)Cc2ccccc2OCc2cccc(C)c2)c1 (stereo not shown) [Compound V-9302]
stabilization of ASCT1 (ASCT1 (SLC1A4)): not stabilized | cleaved caspase 3 in tumor tissue ([1]; IHC): elevated levels of cleaved caspase 3 | pS6 in tumor tissue ([1]; IHC): significantly decreased pS6 | tumor growth ([1]; vs vehicle): prevented tumor growth
